Like-named read-outs stand apart in the source and are kept apart here.
Key:
[1] = tested on: influenza A (S31N), A/California/07/2009; type: cell-based, Influenza A virus
M2 (22-62, S31N) = M2 (22-62, S31N) (Influenza A virus, UniProt P0DOF5, S31N); type: biochemical
[2] = biological target: influenza A M2 channels (A/Udorn/72, S31N mutant) (Influenza A virus, UniProt P0DOF5, S31N); type: cell-based; settings: for Percent Block / EC50: pH 5.3
[3] = biological target: M2 22-62 peptide, mutant A/Udorn/72 S31N (Influenza A virus, UniProt P0DOF5, S31N); type: biochemical
[4] = tested on: influenza A (S31N), A/California/07/2009; type: cell-based, Influenza A virus; remark: listed apart in the source

**Q.** For `O=C(O)CN(CC(=O)O)C12CC3CC(CC(C3)C1)C2.[Cu]` [Amt-IDA-Cu, Copper N-(1-adamantyl)-iminodiacetic acid], which “% Block” value [1] is on record?
**A.** 82%

**Q.** And the EC50 [1]?
**A.** 21.8 µM

**Q.** And the “% Block” value (M2 (22-62, S31N))?
**A.** 82%

**Q.** How did the “Percent Washout” value [2] turn out when `O=C1C[N](C2CCCCCCC2)[Cu]2([O]1)[O]C(=O)C[N]2C1CCCCCCC1` [Bis(CO-IMA)-Cu, Copper biscyclooctyl iminomonoacetic acid] was run?
**A.** 11%

**Q.** And the “Percent Block” value [2]?
**A.** 81%

**Q.** What about the “Mutant Percent Block” value [3] of the same compound?
**A.** 70.38%

**Q.** What about the “Mutant w/ Compound Proton Flux” value [3] of the same compound?
**A.** 16.95 H^+/sec/channel

**Q.** What about the “% Block” value [4] of the same compound?
**A.** 66.4%

**Q.** And the EC50 [4]?
**A.** 25.3 µM

**Q.** How did the “Percent Block” value [2] turn out when `O=C(O)CN(CC(=O)O)C1CCCCCCC1` [CO-IDA, Cylcooctyliminodiacetic acid] was run?
**A.** No Block

**Q.** `O=C(O)CN(CC(=O)O)C1CCCCCCC1.[Cu]` [CO-IDA-Cu, Copper cyclooctyliminodiacetic acid] was tested. Which “Percent Washout” value [2] did it give?
**A.** 94%

**Q.** What about the “Percent Block” value [2] of the same compound?
**A.** 26%

**Q.** What about the “Mutant Percent Block” value [3] of the same compound?
**A.** 75.75%

**Q.** And the “Mutant w/ Compound Proton Flux” value [3]?
**A.** 12.89 H^+/sec/channel

**Q.** What about the “% Block” value [4] of the same compound?
**A.** 62.2%

**Q.** What about the EC50 [4] of the same compound?
**A.** 30.3 µM

**Q.** For `O=C(O)CN(CC(=O)O)C1CCCCCCC1.[Zn]` [CO-IDA-Zn, Zinc cyclooctyliminodiacetic acid], which “Percent Washout” value [2] is on record?
**A.** 80%

**Q.** What about the “Percent Block” value [2] of the same compound?
**A.** 32%

**Q.** What about the “Mutant Percent Block” value [3] of the same compound?
**A.** 76.29%

**Q.** And the “Mutant w/ Compound Proton Flux” value [3]?
**A.** 13.21 H^+/sec/channel

**Q.** And the “% Block” value [4]?
**A.** 61.5%

**Q.** Which “Percent Washout” value [2] does the source give for `NC(=O)CN(CC(N)=O)C1CCCCCCC1` [CO-IDAm, Cyclooctylimidodiacetamide] here?
**A.** 100%

**Q.** And the “Percent Block” value [2]?
**A.** 17%

**Q.** For `CC(=O)[O][Zn]1[O]C(=O)C[N]1C1CCCCCCC1` [CO-IMA-Zn, Zinc cyclooctylaminoacetic acid], which “Percent Washout” value [2] is on record?
**A.** 93%

**Q.** And the “Percent Block” value [2]?
**A.** 42%

**Q.** And the “% Block” value [4]?
**A.** 79.8%

**Q.** And the EC50 [4]?
**A.** 12.6 µM

**Q.** `CC(=O)[O-].CC(=O)[O-].[Cu+2]` [Cu(Acetate)2, reference compound] was tested. Which “Percent Washout” value [2] did it give?
**A.** 4%

**Q.** And the EC50 [2]?
**A.** 74 µM

**Q.** And the “Percent Block” value [2]?
**A.** 70%

**Q.** What about the “Mutant Percent Block” value [3] of the same compound?
**A.** 67.23%

**Q.** And the “Mutant w/ Compound Proton Flux” value [3]?
**A.** 17.85 H^+/sec/channel

**Q.** And the “% Block” value [4]?
**A.** 38%

**Q.** And the EC50 [4]?
**A.** 40.8 µM

**Q.** With `NCCNCCN.[Cl][Cu][Cl]` [Cu(dien)Cl2, reference compound] as the compound, how does the “% Block” value [1] read?
**A.** 66%

**Q.** And the EC50 [1]?
**A.** 51.6 µM

**Q.** What does the source list for `[Cl][Cu][Cl]` [CuCl2, reference compound]?
**A.** % Block [1]: 63%; EC50 [1]: 57.2 µM; % Block (M2 (22-62, S31N)): 94%; EC50 (M2 (22-62, S31N)): 6.1 µM

**Q.** With “Cobalt Biscyclooctylimidodiacetic acid [Bis(CO-IDA)-Co]” as the compound, how does the “Percent Washout” value [2] read?
**A.** 89%

**Q.** And the EC50 [2]?
**A.** 240 µM

**Q.** What about the “Percent Block” value [2] of the same compound?
**A.** 28%

**Q.** What about the “% Block” value [4] of the same compound?
**A.** 50.6%

**Q.** And the EC50 [4]?
**A.** 24.4 µM

**Q.** Which “Percent Block” value [2] does the source give for “Cobalt bisethylenediamine pinanamine imidazole [Pin-Imid-Co-Bis(en)]” here?
**A.** No Block

**Q.** What about the “% Block” value [4] of the same compound?
**A.** 65.6%

**Q.** What about the EC50 [4] of the same compound?
**A.** 13.1 µM

**Q.** Which “Percent Washout” value [2] does the source give for “Copper N-(1-adamantyl)iminoacetate acetylacetonate [Amt-IMA-Cu-ACAC]” here?
**A.** 58%

**Q.** And the “Percent Block” value [2]?
**A.** 65%

**Q.** What about the “% Block” value [1] of the same compound?
**A.** 97%

**Q.** And the EC50 [1]?
**A.** 2.91 µM

**Q.** And the “% Block” value (M2 (22-62, S31N))?
**A.** 96%

**Q.** “Copper N-(1-cyclooctyl)iminoacetate acetylacetonate [CO-IMA-Cu-ACAC]” was tested. Which “Percent Washout” value [2] did it give?
**A.** 16%

**Q.** And the “Percent Block” value [2]?
**A.** 73%

**Q.** What about the “% Block” value [4] of the same compound?
**A.** 65.7%

**Q.** What about the EC50 [4] of the same compound?
**A.** 13.1 µM

**Q.** For “Copper cyclooctylimidodiacetamide [CO-IDAm-Cu]”, which “Percent Washout” value [2] is on record?
**A.** 10%

**Q.** And the “Percent Block” value [2]?
**A.** 86%

**Q.** What about the “% Block” value [4] of the same compound?
**A.** 60.2%

**Q.** And the EC50 [4]?
**A.** 33.5 µM

**Q.** For “Copper pinanamine imidazole [Pin-Imid-Cu]”, which “% Block” value [4] is on record?
**A.** 71.6%

**Q.** How did the “Percent Washout” value [2] turn out when “Zinc cyclooctylimidodiacetamide [CO-IDAm-Zn]” was run?
**A.** 74%

**Q.** And the “Percent Block” value [2]?
**A.** 42%

**Q.** What about the “% Block” value [4] of the same compound?
**A.** 54%

**Q.** And the EC50 [4]?
**A.** 21.3 µM

— US20170128489A1 (priority 2014, published 2017)
